What was measured:
HiBit-BRM fusion protein = target: T1, HiBit-BRM fusion protein (Homo sapiens, UniProt P51531); test: HiBiT-BRM cell-based degradation assay (Nano-Glo HiBiT Lytic Detection, 24 h); details: HeLa cell line expressing HiBiT-BRM; for DC50: read-out: BRM HiBit Degradation IC50
T1 construct: expressed in transfected cells
Method in brief: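 Luminescence from reconstituted NanoBiT luciferase in lysed HeLa HiBiT-BRM cells served as the measure of remaining BRM after 24 h treatment. Compounds were tested from 30 μM final downward in 3-fold steps. DMSO and 2 μM of a standard BRM/BRG1 degrader defined the scale limits.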

[1] = target: T2, HiBit-BRG1 fusion protein (Homo sapiens, UniProt P51532); test: HiBiT-BRG1 cell-based degradation assay (Nano-Glo HiBiT Lytic Detection, 24 h); details: HeLa cell line expressing HiBit-BRG1 and LgBit; for Dmax: read-out: BRG1 HiBit Degradation Maximum (%); for DC50: read-out: BRMG1 HiBit Degradation IC50
T2 construct: expressed in transfected cells
T2 sequence (P51532 whole entry, the tested form may be a part): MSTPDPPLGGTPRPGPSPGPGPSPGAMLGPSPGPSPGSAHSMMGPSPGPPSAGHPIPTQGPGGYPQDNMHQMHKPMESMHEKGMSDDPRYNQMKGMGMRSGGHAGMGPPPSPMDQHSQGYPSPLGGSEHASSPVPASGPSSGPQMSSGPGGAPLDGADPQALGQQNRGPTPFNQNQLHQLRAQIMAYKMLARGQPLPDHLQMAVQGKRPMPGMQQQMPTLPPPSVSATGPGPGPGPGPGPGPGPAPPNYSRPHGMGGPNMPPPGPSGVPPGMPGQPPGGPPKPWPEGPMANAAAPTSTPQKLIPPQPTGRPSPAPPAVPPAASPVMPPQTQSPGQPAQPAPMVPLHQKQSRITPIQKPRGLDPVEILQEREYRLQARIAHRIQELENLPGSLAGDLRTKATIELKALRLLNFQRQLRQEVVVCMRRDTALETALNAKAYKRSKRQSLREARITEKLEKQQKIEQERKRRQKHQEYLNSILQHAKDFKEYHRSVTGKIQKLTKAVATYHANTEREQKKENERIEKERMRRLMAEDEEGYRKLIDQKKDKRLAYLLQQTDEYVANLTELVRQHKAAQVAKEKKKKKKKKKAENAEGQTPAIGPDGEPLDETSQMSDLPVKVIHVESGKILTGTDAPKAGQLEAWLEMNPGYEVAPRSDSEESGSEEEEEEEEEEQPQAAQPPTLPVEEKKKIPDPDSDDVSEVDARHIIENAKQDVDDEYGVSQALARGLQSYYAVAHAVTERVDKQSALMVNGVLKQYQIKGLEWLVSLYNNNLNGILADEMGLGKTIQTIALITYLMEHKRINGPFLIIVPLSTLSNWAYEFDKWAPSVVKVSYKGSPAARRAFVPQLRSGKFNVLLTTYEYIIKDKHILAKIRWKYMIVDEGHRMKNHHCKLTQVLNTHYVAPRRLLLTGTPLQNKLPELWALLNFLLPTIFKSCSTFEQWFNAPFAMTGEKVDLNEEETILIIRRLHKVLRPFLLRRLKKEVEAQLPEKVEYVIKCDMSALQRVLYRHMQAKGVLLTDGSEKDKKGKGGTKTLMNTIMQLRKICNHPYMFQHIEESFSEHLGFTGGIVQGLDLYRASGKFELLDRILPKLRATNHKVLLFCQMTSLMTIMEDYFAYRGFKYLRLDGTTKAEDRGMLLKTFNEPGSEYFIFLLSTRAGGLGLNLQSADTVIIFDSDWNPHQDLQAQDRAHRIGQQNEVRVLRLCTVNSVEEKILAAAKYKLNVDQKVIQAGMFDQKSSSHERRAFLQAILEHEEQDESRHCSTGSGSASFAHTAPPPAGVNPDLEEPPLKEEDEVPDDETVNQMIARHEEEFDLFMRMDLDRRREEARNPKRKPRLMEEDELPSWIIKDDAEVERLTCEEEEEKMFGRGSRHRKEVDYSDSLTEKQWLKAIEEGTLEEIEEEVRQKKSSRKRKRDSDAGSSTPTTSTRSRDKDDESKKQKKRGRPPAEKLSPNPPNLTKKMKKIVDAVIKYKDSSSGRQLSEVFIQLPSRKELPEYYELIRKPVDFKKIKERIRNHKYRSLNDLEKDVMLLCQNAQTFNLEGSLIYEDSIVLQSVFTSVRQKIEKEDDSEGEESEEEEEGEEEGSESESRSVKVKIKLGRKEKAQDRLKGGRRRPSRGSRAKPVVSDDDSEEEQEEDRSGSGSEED
Method in brief: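 Luminescence from Nano-Glo HiBiT lytic detection, read after 24 h compound exposure, scored degradation in a stable HeLa HiBiT-BRG1/LgBit line seeded at 5000 cells/well. DMSO wells defined 0% and 2 μM known BRM/BRG1 degrader wells defined full degradation.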

T1 sequence (P51531 whole entry, the tested form may be a part): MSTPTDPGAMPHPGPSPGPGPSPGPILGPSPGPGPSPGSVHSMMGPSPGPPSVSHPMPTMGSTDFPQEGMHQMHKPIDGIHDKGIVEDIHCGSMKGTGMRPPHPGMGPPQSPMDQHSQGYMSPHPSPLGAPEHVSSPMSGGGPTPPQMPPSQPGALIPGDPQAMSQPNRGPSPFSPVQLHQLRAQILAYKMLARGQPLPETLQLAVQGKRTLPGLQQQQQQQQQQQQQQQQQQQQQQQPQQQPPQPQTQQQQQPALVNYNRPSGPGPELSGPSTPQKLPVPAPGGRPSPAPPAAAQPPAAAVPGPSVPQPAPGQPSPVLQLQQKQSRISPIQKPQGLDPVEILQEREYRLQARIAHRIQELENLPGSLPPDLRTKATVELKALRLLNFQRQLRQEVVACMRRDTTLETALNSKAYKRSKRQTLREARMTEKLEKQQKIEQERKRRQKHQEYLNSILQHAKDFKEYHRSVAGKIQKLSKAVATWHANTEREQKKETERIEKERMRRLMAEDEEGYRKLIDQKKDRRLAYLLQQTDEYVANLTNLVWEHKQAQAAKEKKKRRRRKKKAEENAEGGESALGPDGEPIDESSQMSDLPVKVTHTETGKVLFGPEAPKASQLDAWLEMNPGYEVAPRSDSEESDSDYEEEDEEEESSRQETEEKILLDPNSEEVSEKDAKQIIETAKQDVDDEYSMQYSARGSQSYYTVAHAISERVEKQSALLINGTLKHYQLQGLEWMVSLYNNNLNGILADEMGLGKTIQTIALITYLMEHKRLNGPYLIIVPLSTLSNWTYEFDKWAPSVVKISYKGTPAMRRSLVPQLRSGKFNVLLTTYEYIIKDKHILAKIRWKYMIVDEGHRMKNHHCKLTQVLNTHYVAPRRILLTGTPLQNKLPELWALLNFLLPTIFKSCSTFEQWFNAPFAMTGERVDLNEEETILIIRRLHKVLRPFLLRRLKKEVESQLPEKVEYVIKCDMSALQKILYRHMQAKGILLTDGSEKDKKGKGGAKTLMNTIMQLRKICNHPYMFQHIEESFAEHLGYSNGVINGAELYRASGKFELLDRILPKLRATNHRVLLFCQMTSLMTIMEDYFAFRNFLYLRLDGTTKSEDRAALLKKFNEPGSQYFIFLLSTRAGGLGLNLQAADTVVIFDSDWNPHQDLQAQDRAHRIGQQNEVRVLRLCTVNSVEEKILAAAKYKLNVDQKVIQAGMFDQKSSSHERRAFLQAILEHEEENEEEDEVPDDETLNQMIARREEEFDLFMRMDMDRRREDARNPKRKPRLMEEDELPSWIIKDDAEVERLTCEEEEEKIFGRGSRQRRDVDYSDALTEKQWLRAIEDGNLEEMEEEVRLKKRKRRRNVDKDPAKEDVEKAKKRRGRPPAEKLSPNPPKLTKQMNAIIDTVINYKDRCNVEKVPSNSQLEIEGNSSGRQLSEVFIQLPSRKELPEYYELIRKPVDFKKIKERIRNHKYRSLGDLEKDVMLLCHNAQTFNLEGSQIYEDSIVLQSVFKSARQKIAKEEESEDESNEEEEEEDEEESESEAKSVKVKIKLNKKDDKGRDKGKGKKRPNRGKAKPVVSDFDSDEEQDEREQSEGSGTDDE

| DC50 (HiBit-BRM fusion protein) [µM] | Dmax [1] [%] | DC50 [1] [µM] | IC50 (HiBit-BRM fusion protein) [µM] | SMILES | BRM HiBit Degradation Maximum (%) (HiBit-BRM fusion protein) | BRG1 HiBit Degradation Maximum (%) [1] |
| --- | --- | --- | --- | --- | --- | --- |
| > 0.01 | > 75 | > 0.01 | – | Cc1ncsc1-c1ccc([C@H](C)NC(=O)[C@@H]2C[C@@H](O)CN2C(=O)[C@@H](c2cc(N3CCC(CN(C)[C@H]4CCc5[nH]c6nnc(-c7ccccc7O)cc6c5C4)CC3)no2)C(C)C)cc1 [Compound 107, (2S,4R)-4-hydroxy-1-((R)-2-(3-(4-((((S)-3-(2-hydroxyphenyl)-6,7,8,9-tetrahydro-5H-pyridazino[3,4-b]indol-6-yl)(methyl)amino)methyl)piperidin-1-yl)isoxazol-5-yl)-3-methylbutanoyl)-N-((S)-1-(4-(4-methylthiazol-5-yl)phenyl)ethyl)pyrrolidine-2-carboxamide] | A (“A” indicates maximum degradation ≥ 75%) | – |
| – | < 50 | – | – | Cc1ncsc1-c1ccc([C@H](C)NC(=O)[C@@H]2C[C@@H](O)CN2C(=O)[C@@H](c2cc(OCCN3CC(c4cn(C(F)F)c5nnc(-c6ccccc6O)cc45)C3)no2)C(C)C)cc1 [Compound 116, (2S,4R)-1-((R)-2-(3-(2-(3-(7-(difluoromethyl)-3-(2-hydroxyphenyl)-7H-pyrrolo[2,3-c]pyridazin-5-yl)azetidin-1-yl)ethoxy)isoxazol-5-yl)-3-methylbutanoyl)-4-hydroxy-N-((S)-1-(4-(4-methylthiazol-5-yl)phenyl)ethyl)pyrrolidine-2-carboxamide] | C (“C” indicates maximum degradation < 50%) | – |
| > 0.1 | < 50 | – | – | Cc1ncsc1-c1ccc([C@H](C)NC(=O)[C@@H]2C[C@@H](O)CN2C(=O)[C@@H](c2cc(OCCCN[C@H]3CCc4[nH]c5nnc(-c6ccccc6O)cc5c4C3)no2)C(C)C)cc1 [Compound 143, (2S,4R)-4-hydroxy-1-((R)-2-(3-(3-(((S)-3-(2-hydroxyphenyl)-6,7,8,9-tetrahydro-5H-pyridazino[3,4-b]indol-6-yl)amino)propoxy)isoxazol-5-yl)-3-methylbutanoyl)-N-((S)-1-(4-(4-methylthiazol-5-yl)phenyl)ethyl)pyrrolidine-2-carboxamide] | A (“A” indicates maximum degradation ≥ 75%) | – |
| > 0.01 | > 50 | > 0.1 | – | Cc1ncsc1-c1ccc([C@H](C)NC(=O)[C@@H]2C[C@@H](O)CN2C(=O)[C@@H](c2cc(OCC(=O)N[C@@H]3CCc4[nH]c5nnc(-c6ccccc6O)cc5c4C3)no2)C(C)C)cc1 [Compound 150, (2S,4R)-4-hydroxy-1-((R)-2-(3-(2-(((R)-3-(2-hydroxyphenyl)-6,7,8,9-tetrahydro-5H-pyridazino[3,4-b]indol-6-yl)amino)-2-oxoethoxy)isoxazol-5-yl)-3-methylbutanoyl)-N-((S)-1-(4-(4-methylthiazol-5-yl)phenyl)ethyl)pyrrolidine-2-carboxamide] | A (“A” indicates maximum degradation ≥ 75%) | – |

The remaining lines, values behind:

| SMILES | DC50 (HiBit-BRM fusion protein) [µM] | Dmax [1] [%] | DC50 [1] [µM] | IC50 (HiBit-BRM fusion protein) [µM] | BRM HiBit Degradation Maximum (%) (HiBit-BRM fusion protein) | BRG1 HiBit Degradation Maximum (%) [1] |
| --- | --- | --- | --- | --- | --- | --- |
| Cc1ncsc1-c1ccc([C@H](C)NC(=O)[C@@H]2C[C@@H](O)CN2C(=O)[C@@H](c2cc(OCCN3C[C@H]4C[C@@H](c5c(C)[nH]c6nnc(-c7ccccc7O)cc56)C[C@H]4C3)no2)C(C)C)cc1 [Compound 109, (2S,4R)-4-hydroxy-1-((R)-2-(3-(2-((3aR,5R,6aS)-5-(3-(2-hydroxyphenyl)-6-methyl-7H-pyrrolo [2,3-c]pyridazin-5-yl)hexahydrocyclopenta[c]pyrrol-2(1H)-yl)ethoxy)isoxazol-5-yl)-3-methylbutanoyl)-N-((S)-1-(4-(4-methylthiazol-5-yl)phenyl)ethyl)pyrrolidine-2-carboxamide] | – | – | – | > 0.01 | A (“A” indicates maximum degradation ≥ 75%) | C (“C” indicates maximum degradation < 50%) |
| Cc1ncsc1-c1ccc([C@H](C)NC(=O)[C@@H]2C[C@@H](O)CN2C(=O)[C@@H](c2cc(OCCN3CC(C4(C)Cc5cc(-c6ccccc6O)nnc5N4)C3)no2)C(C)C)cc1 (stereo partly drawn) [Compound 122, (2S,4R)-4-hydroxy-1-((2R)-2-(3-(2-(3-(3-(2-hydroxyphenyl)-6-methyl-6,7-dihydro-5H-pyrrolo[2,3-c]pyridazin-6-yl)azetidin-1-yl)ethoxy)isoxazol-5-yl)-3-methylbutanoyl)-N-((S)-1-(4-(4-methylthiazol-5-yl)phenyl)ethyl)pyrrolidine-2-carboxamide] | – | > 50 | – | – | C (“C” indicates maximum degradation < 50%) | – |
| Cc1ncsc1-c1ccc([C@H](C)NC(=O)[C@@H]2C[C@@H](O)CN2C(=O)[C@@H](c2cc(OCCN3Cc4[nH]c5nnc(-c6ccccc6O)cc5c4C3)no2)C(C)C)cc1 [Compound 123, (2S,4R)-4-hydroxy-1-[(2R)-2-(3-{2-[11-(2-hydroxyphenyl)-4,7,9,10-tetraazatricyclo[6.4.0.0^{2,6}]dodeca-1(12),2(6),8,10-tetraen-4-yl]ethoxy}-1,2-oxazol-5-yl)-3-methylbutanoyl]-N-[(1S)-1-[4-(4-methyl-1,3-thiazol-5-yl)phenyl]ethyl]pyrrolidine-2-carboxamide] | > 0.1 | < 50 | – | – | A (“A” indicates maximum degradation ≥ 75%) | – |
| Cc1ncsc1-c1ccc(C(C)NC(=O)C2CC(O)CN2C(=O)C(c2cc(OCCN3CC4C(C3)C4c3cc4cc(-c5cc(F)cc(F)c5O)nnc4[nH]3)no2)C(C)C)cc1 [Compound 141, (2S,4R)-1-((R)-2-(3-(2-((1R,5S,6R)-6-(3-(3,5-difluoro-2-hydroxyphenyl)-7H-pyrrolo[2,3-c]pyridazin-6-yl)-3-azabicyclo[3.1.0]hexan-3-yl)ethoxy)isoxazol-5-yl)-3-methylbutanoyl)-4-hydroxy-N-((S)-1-(4-(4-methylthiazol-5-yl)phenyl)ethyl)pyrrolidine-2-carboxamide] | > 0.01 | < 50 | – | – | A (“A” indicates maximum degradation ≥ 75%) | – |
| Cc1ncsc1-c1ccc([C@H](C)NC(=O)[C@@H]2C[C@@H](O)CN2C(=O)[C@@H](c2cc(N3CCC(C(=O)N[C@H]4CCc5[nH]c6nnc(-c7ccccc7O)cc6c5C4)CC3)no2)C(C)C)cc1 [Compound 144, 1-(5-((R)-1-((2S,4R)-4-hydroxy-2-(((S)-1-(4-(4-methylthiazol-5-yl)phenyl)ethyl)carbamoyl)pyrrolidin-1-yl)-3-methyl-1-oxobutan-2-yl)isoxazol-3-yl)-N-((S)-3-(2-hydroxyphenyl)-6,7,8,9-tetrahydro-5H-pyridazino[3,4-b]indol-6-yl)piperidine-4-carboxamide] | > 0.01 | > 50 | > 0.1 | – | A (“A” indicates maximum degradation ≥ 75%) | – |
| Cc1ncsc1-c1ccc([C@H](C)NC(=O)[C@@H]2C[C@@H](O)CN2C(=O)[C@@H](c2cc(OCCN(C)[C@@H]3CCc4[nH]c5nnc(-c6ccccc6O)cc5c4C3)no2)C(C)C)cc1 [Compound 156, (2S,4R)-4-hydroxy-1-((R)-2-(3-(2-(((R)-3-(2-hydroxyphenyl)-6,7,8,9-tetrahydro-5H-pyridazino[3,4-b]indol-6-yl)(methyl)amino)ethoxy)isoxazol-5-yl)-3-methylbutanoyl)-N-((S)-1-(4-(4-methylthiazol-5-yl)phenyl)ethyl)pyrrolidine-2-carboxamide] | > 0.01 | < 50 | – | – | A (“A” indicates maximum degradation ≥ 75%) | – |
| Cc1ncsc1-c1ccc([C@H](C)NC(=O)[C@@H]2C[C@@H](O)CN2C(=O)[C@@H](c2cc(N3CCC(CN[C@H]4CCc5[nH]c6nnc(-c7ccccc7O)cc6c5C4)CC3)no2)C(C)C)cc1 [Compound 159, (2S,4R)-4-hydroxy-1-((R)-2-(3-(4-((((S)-3-(2-hydroxyphenyl)-6,7,8,9-tetrahydro-5H-pyridazino[3,4-b]indol-6-yl)amino)methyl)piperidin-1-yl)isoxazol-5-yl)-3-methylbutanoyl)-N-((S)-1-(4-(4-methylthiazol-5-yl)phenyl)ethyl)pyrrolidine-2-carboxamide] | > 0.01 | > 75 | > 0.1 | – | A (“A” indicates maximum degradation ≥ 75%) | – |
| Cc1ncsc1-c1ccc(CNC(=O)[C@@H]2C[C@@H](O)CN2C(=O)[C@@H](NC(=O)CCCCC(=O)N[C@@H]2CCc3[nH]c4nnc(-c5ccccc5O)cc4c3C2)C(C)(C)C)cc1 [Compound 170, N1-((S)-1-((2S,4R)-4-hydroxy-2-((4-(4-methylthiazol-5-yl)benzyl)carbamoyl)pyrrolidin-1-yl)-3,3-dimethyl-1-oxobutan-2-yl)-N6-((R)-3-(2-hydroxyphenyl)-6,7,8,9-tetrahydro-5H-pyridazino[3,4-b]indol-6-yl)adipamide] | – | < 50 | – | – | C (“C” indicates maximum degradation < 50%) | – |
| Cc1ncsc1-c1ccc(CNC(=O)[C@@H]2C[C@@H](O)CN2C(=O)[C@@H](NC(=O)CCC(=O)N[C@@H]2CCc3[nH]c4nnc(-c5ccccc5O)cc4c3C2)C(C)(C)C)cc1 [Compound 171, N1-((S)-1-((2S,4R)-4-hydroxy-2-((4-(4-methylthiazol-5-yl)benzyl)carbamoyl)pyrrolidin-1-yl)-3,3-dimethyl-1-oxobutan-2-yl)-N4-((R)-3-(2-hydroxyphenyl)-6,7,8,9-tetrahydro-5H-pyridazino[3,4-b]indol-6-yl)succinamide] | – | < 50 | – | – | C (“C” indicates maximum degradation < 50%) | – |
